Oligonucleotides are written 5' to 3', each unit as a sugar letter and its base; * is a phosphorothioate linkage, no mark a phosphodiester; rarer units and linkages stand in square brackets, end groups in braces. Plain capitals give the bases only. e = 2'-O-(2-methoxyethyl) (MOE); [5mC] = 5-methylcytosine; d = 2'-deoxy (DNA)

One data set relates to female SHR rats. The data set is described as follows: Blood pressure by tail-cuff method in female SHR rats, Study 1. The format is in vivo, Spontaneously hypertensive (SHR) rats. Particulars: 2 weeks. How it is done:
Groups of female SHR rats were injected with 50 mg/kg/week, 75 mg/kg/week, or 100 mg/kg/week of ISIS 552668 administered for 2 weeks. A control group of female SHR rats was injected with phosphate buffered saline (PBS) administered weekly for 2 weeks. Another control group constituted a group of wild-type rats injected with phosphate buffered saline (PBS) administered weekly for 2 weeks.
Systolic blood pressure (SBP), mean arterial pressure (MAP), and diastolic blood pressure (DBP) in the rats was measured by the tail-cuff volume-pressure method (Kent Scientific, Torrington, Conn.).

Data set [1] concerns angiotensinogen protein. The data set is described as follows: ELISA of angiotensinogen plasma levels in SHR, Study 3. Particulars: 3 weeks, oligonucleotides 100 mg/kg/week, Captopril 150 mg/kg/day. Type of data set: in vivo, Spontaneously hypertensive (SHR) rats. How it is done:
(§1) A group of SHR was injected with 100 mg/kg/week of ISIS 552668 administered for 3 weeks. A control group of SHR was injected with phosphate buffered saline (PBS) administered weekly for 3 weeks. Another control group of SHR was injected with 100 mg/kg/week of a control oligonucleotide (a nucleotide not targeted to angiotensinogen) administered for 3 weeks.
(§2) Angiotensinogen plasma levels were measured by ELISA (IBL International, Toronto, Canada). […] Results are presented as percent inhibition of angiotensinogen, relative to PBS control.
A general note: ELISA stands for enzyme-linked immunosorbent assay.

For a further data set, the system named is SHR. The data set is described as follows: Systolic blood pressure by tail-cuff method in SHR before and after ISIS 552668 added to chronic Captopril, Study 4. The format is in vivo, Spontaneously hypertensive (SHR) rats. Conditions: no Captopril.
For the next data set, the system named is angiotensinogen. Put plainly: Immunohistochemical analysis of liver, cardiac and kidney tissues in SHR, Study 3. Type of data set: in vivo, Spontaneously hypertensive (SHR) rats. Particulars: 100 mg/kg/week for 3 weeks, compared to the PBS control. How it is done: as §1
Data set [2] has as its system angiotensinogen protein. The data set is described as follows: ELISA of angiotensinogen plasma levels in Sprague-Dawley rats. The format is in vivo. Conditions: for Percent inhibition of angiotensinogen protein: plasma, relative to PBS control. As to the method: Groups of Sprague-Dawley rats were injected with 10 mg/kg/week, 20 mg/kg/week, 40 mg/kg/week, or 80 mg/kg/week of ISIS 552668 administered for 4 weeks. A control group of rats was injected with phosphate buffered saline (PBS) administered weekly for 4 weeks. The rats were sacrificed at the end of the study at week 4. Whole liver and kidney were harvested for RNA analysis and plasma was collected for protein analysis.
as §2

Take “ISIS 552668: 5-10-5 MOE gapmer CACTGATTTTTGCCCAGGAT (SEQ ID NO: 17), phosphorothioate linkages, 5-methylcytosines, targeted to rat angiotensinogen (antisense e[5mC]*eA*e[5mC]*eT*eG*dA*dT*dT*dT*dT*dT*dG*d[5mC]*d[5mC]*d[5mC]*eA*eG*eG*eA*eT)”: the DBP with female SHR rats (50 mg/kg/wk) is 100 mm Hg; in the data set on female SHR rats (75 mg/kg/wk), 98 mm Hg; in the data set on female SHR rats (100 mg/kg/wk), 81 mm Hg. Further, the MAP was 114 mm Hg in the data set on female SHR rats (50 mg/kg/wk), 111 mm Hg in the data set with female SHR rats (75 mg/kg/wk) and 95 mm Hg in the data set with female SHR rats (100 mg/kg/wk). The SBP is on record as 144 mm Hg with female SHR rats (50 mg/kg/wk), 140 mm Hg with female SHR rats (75 mg/kg/wk) and 122 mm Hg in the data set on female SHR rats (100 mg/kg/wk). Besides, the “Percent inhibition of angiotensinogen protein in the plasma compared to the PBS control” value in the data set on angiotensinogen protein [1] is reported as 91%. Also, the “Blood pressure (SBP), Before ISIS 552668 dosing” value in the data set with SHR (ISIS 552668 50 mg/kg/week) is given as 146; in the data set on SHR (ISIS 552668 100 mg/kg/week), 131. In addition, the “Angiotensinogen in liver, cardiac and kidney tissues by immunohistochemical analysis” value with angiotensinogen is “significant reduction of angiotensinogen”. Further, the “Percent inhibition of angiotensinogen protein” value in the data set with angiotensinogen protein [2] (10 mg/kg/wk for 4 weeks) is reported as 25%; with angiotensinogen protein [2] (20 mg/kg/wk for 4 weeks), 38%; in the data set with angiotensinogen protein [2] (40 mg/kg/wk for 4 weeks), 83%; with angiotensinogen protein [2] (80 mg/kg/wk for 4 weeks) it was 93%. Besides, the “ED50 for plasma protein reductions” value in the data set with angiotensinogen protein [2] (weekly dosing for 4 weeks) was 23.6 mg/kg.

These data come from US20150297629A1, “MODULATION OF RENIN-ANGIOTENSIN SYSTEM (RAS) RELATED DISEASES BY ANGIOTENSINOGEN” (Isis Pharmaceuticals, Inc,, priority 2012, published 2015).
